The results in this text go back to patent US20230270805A1, “A COMPOSITION COMPRISING AN EXTRACT OF ALDER TREE OR THE ISOLATED COMPOUNDS THEREFROM FOR TREATING AND PREVENTING SKELETON MUSCLE-RELATED DISORDER AND THE USE THEREOF” (Sookmyung Women's University Indusutry-Academic Cooperation …, priority 2020, published 2023).

Type in all cases: cell-based, mouse
The test system of assay [1] is C2C12 myotube cells treated with dexamethasone. Briefly: Immunofluorescence staining of multinucleated MHC-positive myotubes after dexamethasone-induced muscle loss. The conditions noted are these: dexamethasone (12 hours) + compound 10 nM; control group = 1. As for the experimental part: (§1) After removing respective differentiation medium, the differentiated myoblast cells in the differentiation medium were washed with phosphate buffer solution twice and fixed with 4% paraformaldehyde (0141, BBC Biochemical) for 20 mins. After washing the cells with phosphate buffer solution twice again, the cells were treated with 0.1% tritonX-100 (2315025, Sigma) for 20 mins. After washing the cells with phosphate buffer solution twice again, the cells were blocked with 5% horse serum solution (16050122, Gibco) and mouse anti-MHC (MAB4470, R&D systems) was added thereto to react for 12 hours at 4° C.
(§2) After finishing the reaction, the cells were washed with phosphate buffer solution more than 3 times and then the level of MHC expression was analyzed using by Alexa Flouor 568-conjuagted secondary anti-mouse (A-21144, MicoProbes) and DAPI (D9542, Sigma). The test result of immunofluorescence on MHC-positive myotubes was visualized with red color and the DAPI-labelled nucleus was visualized with blue color.
About 3×10^4 mouse myoblast cell cells (C2C12; CRL-1772 ATCC) were incubated in 60 mm plates for 24 hours, and various inventive compounds (10 nM) were added to the differentiation medium (0273, Gibco) for 3 days to differentiate.

For a further assay, the system named is MHC. Kind of assay: Western blot of MHC expression in differentiating C2C12 myoblasts. The procedure:
(§3) Various concentrations of inventive extract (1, 10, 100 ng/ml) were treated to C2C12 cells (mouse myoblast cell line; Cat^#CRL-1771, ATCC) in differentiation medium (2% horse serum-containing DMEM, Cat^#11965-084, Gibco) for 3 days to induce their differentiation.
(§4) For Western blot analysis, about 3×10^4 mouse myoblast cell cells were incubated in 60 mm plates for 24 hours, and each sample was added to the differentiation medium for 3 days to differentiate. The protein extract was obtained from the differentiated cells using by lysis buffer [25 mM Tris-HCl (pH 7.5), 100 mM NaCl, 1% NP-40, 1% sodium deoxycholate, 0.1% sodium dodecyl sulfate (SDS), and protease inhibitor cocktail, Calbiochem, Darmstadt, Germany). The protein extract (25 μg) was performed to SDS-polyacrylamide gel electorphoresis (PAGE) and transferred to polyvinylidene fluoride (PVDF) membranes.
Primary mouse anti-MHC (sc-376157, Santa Cruz) or anti-myoD (sc-32758, Santa Cruz) was conjugated to the blots at 4° C., for 12 hrs and then conjugated with anti-mouse secondary antibody conjugated to Horseradish peroxidase (goat anti-mouse IgG-HRP, sc-2005, SantaCruz) to analyze the amount of MHC protein by chemiluminescence method. Pan-cadherin (Cat #3678, Sigma) was used as a loading control in the experiment.
(§5) Various inventive compounds (10 nM) were treated to C2C12 cells (mouse myoblast cell line; Cat^#CRL-1771, ATCC) in differentiation medium (2% horse serum-containing DMEM, Cat^#11965-084, Gibco) for 3 days to induce their differentiation.
as §4, with “electrophoresis” for “electorphoresis”
(§6) The change of MHC expression caused by inventive compound in myotube cell was determined by immunostaining method using by mouse anti-MHC and anti-mouse IgG2b Alexa-fluor 568 (See FIG. 7) (Chem. Biol. Interact. 2016, 248:60).
(§7) Various concentrations of inventive compound 1 (1, 10 and 100 nM) were treated to C2C12 cells (mouse myoblast cell line; Cat^#CRL-1771, ATCC) in differentiation medium (2% horse serum-containing DMEM, Cat^#11965-084, Gibco) for 3 days to induce their differentiation.
(In general: A western blot detects proteins with antibodies after separation by electrophoresis.)

A further assay deals with C2C12 cells. Briefly: Immunofluorescence staining (anti-MHC/DAPI) of multinucleated myotubes, myoblast differentiation. The procedure:
as §3, §1, §2, §5, §6, §7

The subject of another assay is p38 MAPK. Briefly: Western blot of phosphorylated p38 MAPK in differentiated myotubes. The conditions noted are these: 3 days after differentiation. As for the experimental part: Various concentrations of inventive extract (1, 10, 100 ng/ml) were treated to myoblast cells and the expressed level of p38 MAPK protein in the lysates of differentiated myotubes obtained at 3 days after the differentiation, was determined according to Western blot analysis.
Primary rabbit-anti phosphorylation p38 MAPK (Cat #9212, Cell Signaling Technology) was reacted with anti-rabbit secondary antibody (goat anti-rabbit IgG-HRP, sc-2004, SantaCruz) to determine the express level of phosphorylated p38 MAPK and primary rabbit-anti-p38 MAPK (Cat #9212, Cell Signaling Technology) was used to determine the expressed amount of total p38 MAPK (loading control)
Various concentrations of inventive compound 1 (1, 10, 100 nM) were treated to myoblast cells and the expressed level of p38 MAPK protein in the lysates of differentiated myotubes obtained at 3 days after the differentiation, was determined according to Western blot analysis.

For a further assay, the system named is myoD. Briefly: Western blot of myoD expression in differentiating C2C12 myoblasts. Particulars: 3 days differentiation. As for the experimental part:
Various concentrations of inventive extract (1, 10, 100 ng/ml) were treated to C2C12 cells (mouse myoblast cell line; Ca^#CRL-1771, American Type Culture Collection (ATCC)) and cell lysates obtained from the differentiated cells, were subjected to Western Blot analysis to evaluate the expressed level of MHC and myoD proteins (The result was shown in FIG. 1A). the change of MHC expression caused by inventive extract in myotube cell was determined by immunostaining method using by mouse anti-MHC and anti-mouse IgG2b Alexa-fluor 568 (See FIG. 1B) (Chem. Biol. Interact. 2016, 248:60).
as §3
For Western blot analysis, about 3×10^4 mouse myoblast cell cells were incubated in 60 mm plates for 24 hours, and each sample was added to the differentiation medium for 3 days to differentiate. The protein extract was obtained from the differentiated cells using by lysis buffer [25 mM Tris-HCl (pH 7.5), 100 mM NaCl, 1% NP-40, 1% sodium deoxycholate, 0.1% sodium dodecyl sulfate (SDS), and protease inhibitor cocktail, Calbiochem, Darmstadt, Germany). […]
In order to investigate the myogenic effect of the inventive compound 1 obtained in Example, various concentrations of inventive compound 1 (1, 10 and 100 nM) were treated to C2C12 cells (mouse myoblast cell line; Cat^#CRL-1771, American Type Culture Collection (ATCC)) and cell lysates obtained from the differentiated cells, were subjected to Western Blot analysis to evaluate the expressed level of MHC and myoD proteins (The result was shown in FIG. 6). The change of MHC expression caused by inventive compound in myotube cell was determined by immunostaining method using by mouse anti-MHC and anti-mouse IgG2b Alexa-fluor 568 (See FIG. 7) (Chem. Biol. Interact. 2016, 248:60). […]

[2] abbreviates: compound 10 nM, 3 days differentiation, control = 1 (Experimental Example 3).
[3] abbreviates: compound 10 nM, 3 days differentiation (Experimental Example 3).

For the compound `O=C(CCc1ccc(O)c(O)c1)CC(O)CCc1ccc(O)c(O)c1` (stereo not drawn) [Compound 4, Hirsutanonol], the “The number of muscle fibers that are multinucleated with five or more nuclei and expressed with MHC (fold)” value in assay [1] is listed as 0.7 fold; in the assay on C2C12 cells (setting [3]) it was 3.1 fold. The “MHC/pan-cadherin expression (fold)” value in the assay on MHC (setting [2]) was 1.9 fold.

Regarding `COc1cc(/C=C/C(=O)OC[C@H](Cc2ccc(O)c(OC)c2)[C@H](COC(=O)/C=C/c2ccc(O)c(OC)c2)Cc2ccc(O)c(OC)c2)ccc1O` [Compound 1, (−)-(2R,3R)-1,4-O-diferuloylsecoisolariciresinol], the “The number of muscle fibers that are multinucleated with five or more nuclei and expressed with MHC (fold)” value was found to be 0.7 fold in assay [1]; 2.8 fold in the assay on C2C12 cells (setting [3]); 1.5 fold in the assay on C2C12 cells (compound 1 at 1 nM (Experimental Example 4)); 9.0 fold in the assay with C2C12 cells (compound 1 at 10 nM (Experimental Example 4)); 8.0 fold in the assay on C2C12 cells (compound 1 at 100 nM (Experimental Example 4)). Besides, the “phosphorylated-p38/p38 expressed amount (fold)” value in the assay with p38 MAPK (compound 1 at 1 nM) turned out to be 10.6 fold; in the assay with p38 MAPK (compound 1 at 10 nM) it was 14.8 fold; with p38 MAPK (compound 1 at 100 nM), 15.0 fold. Besides, the “myoD/pan-cadherin expression (fold)” value with myoD (compound 1 at 1 nM) was found to be 1.2 fold; in the assay with myoD (compound 1 at 10 nM), 1.3 fold; with myoD (compound 1 at 100 nM), 1.7 fold. Besides, the “MHC/pan-cadherin expression (fold)” value with MHC (setting [2]) is 1.5 fold; with MHC (compound 1 at 1 nM, 3 days differentiation (Experimental Example 4)) it was 1.2 fold; in the assay with MHC (compound 1 at 10 nM, 3 days differentiation (Experimental Example 4)) it was 6.0 fold; in the assay on MHC (compound 1 at 100 nM, 3 days differentiation (Experimental Example 4)), 4.6 fold.
